Literature values as cited in EP4454482A1, “PREPARATIONS COMPRISING OLEANOL GLYCOSIDES” (Analyticon Discovery GmbH, priority 2023, dated 2024).

Conditions: water (20° dH) at 20 °C; solid active agent

Nc1nc2c(ncn2COCCO)c(=O)[nH]1 [Acyclovir, 2-Amino-1,9-dihydro-9-((2-hydroxyethoxy)methyl)-6H-Purin-6-one]
solubility in water: less than 5 g/L
